The source of these data is paper PMC12621189, “Optimization of Selective and CNS Penetrant Alkyne-Based TREK Inhibitors: The Discovery and Characterization of ONO-9517601 (VU6022856) and ONO-7927846 (VU6024391)” (Journal of Medicinal Chemistry, 2025).

Molecules are shown by their SMILES. Some results are limits rather than exact numbers.

The target in one data set is T1, human TREK-2 (hTREK-2) (Homo sapiens, UniProt P57789).
T1 construct: expressed in transfected cells
T1 sequence (P57789 1-538): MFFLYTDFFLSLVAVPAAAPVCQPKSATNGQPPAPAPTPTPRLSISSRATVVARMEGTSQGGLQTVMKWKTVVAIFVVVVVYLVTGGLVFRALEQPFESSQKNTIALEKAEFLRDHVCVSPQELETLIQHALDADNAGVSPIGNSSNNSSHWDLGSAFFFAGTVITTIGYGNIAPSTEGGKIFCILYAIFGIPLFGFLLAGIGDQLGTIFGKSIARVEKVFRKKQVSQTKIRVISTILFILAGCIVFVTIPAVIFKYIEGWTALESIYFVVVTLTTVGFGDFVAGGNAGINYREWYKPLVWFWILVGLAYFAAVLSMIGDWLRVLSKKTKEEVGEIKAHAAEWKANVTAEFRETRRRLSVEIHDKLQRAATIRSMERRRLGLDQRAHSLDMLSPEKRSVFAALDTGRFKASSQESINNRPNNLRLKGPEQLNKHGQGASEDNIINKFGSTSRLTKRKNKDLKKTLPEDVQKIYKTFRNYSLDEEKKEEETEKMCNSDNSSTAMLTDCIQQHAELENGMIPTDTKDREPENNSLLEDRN
Briefly: TREK-2 thallium flux assay (HEK293 cells stably expressing hTREK-2). The class given is cell-based. The conditions noted are these: human TREK-2, thallium flux; read-out: h TREK-2 Tl+ IC50. The procedure:
0.3% DMSO - ΔRatio of 10 μM control compound)}x100
% inhibition vs compound concentration were plotted in XLfit and calculated IC50.
TREK-2 Thallium flux assay
HEK293 cells stably expressing human TREK-2 (hTREK-2) are plated in 384-well plates, cultured overnight, loaded with Thallos dye the following day. Test compounds or control compound (tert-butyl (3-((4-(benzyloxy)-2-methylphenyl)carbamoyl)-4-chlorophenyl)carbamate) or 0.3% DMSO (vehicle control) which are prepared on separate plates are added to the cell plates and incubated for 10 min, and then the cells were treated with thallium stimulus buffer to initiate […]
To measure the efficacy and potency of test compounds, the change in fluorescence intensity (ΔRatio) and % inhibition are calculated using the following equations: […]

The target of data set [1] is T2, rat TREK-1 (Rattus norvegicus, UniProt Q920B6).
T2 sequence (Q920B6 1-426): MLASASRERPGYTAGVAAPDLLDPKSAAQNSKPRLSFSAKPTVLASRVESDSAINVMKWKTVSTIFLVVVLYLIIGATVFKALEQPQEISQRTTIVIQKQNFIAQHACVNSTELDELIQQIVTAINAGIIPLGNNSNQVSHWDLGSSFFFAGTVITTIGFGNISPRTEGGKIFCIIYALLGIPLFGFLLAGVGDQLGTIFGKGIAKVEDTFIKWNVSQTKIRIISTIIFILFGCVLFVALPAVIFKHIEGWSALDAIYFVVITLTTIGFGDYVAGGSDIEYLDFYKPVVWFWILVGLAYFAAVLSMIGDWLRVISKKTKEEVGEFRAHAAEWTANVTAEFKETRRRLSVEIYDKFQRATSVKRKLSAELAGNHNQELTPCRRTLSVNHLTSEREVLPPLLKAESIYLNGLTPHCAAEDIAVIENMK
Briefly: rat TREK-1 thallium flux. The class given is cell-based. To be noted: read-out: TREK-1 IC50 (rat, Tl+).

In data set [2] the target is T2, rat TREK-1. The data set is described as follows: rat TREK-1 manual patch clamp. The class given is cell-based. To be noted: read-out: TREK-1 IC50 (rat, MPC).
A further data set deals with T3, human TREK-2 (Homo sapiens, UniProt P57789).
T3 construct: expressed in transfected cells
Briefly: hTREK-2 manual patch clamp assay. The class given is cell-based. To be noted: human TREK-2, manual patch clamp; read-out: TREK-2 IC50 (human, MPC). As for the experimental part:
compounds were dissolved into the bathing solution. The effects of test compound on the currents were calculated at 0 mV using the following equations:
% inhibition = (1-post current/pre current) x 100
% inhibition vs compound concentrations were plotted in GraphPad Prism and calculated IC50. […]
hTREK-2 patch clamp assay
HEK293 cells stably expressing human TREK-2 are plated on glass coverslips, and voltage clamped in the whole-cell configuration of the patch clamp technique. Cells are voltage clamped at a holding potential of -80 mV and the stepped to 0 mV for 500 msec. The voltage is subsequently ramped from -120mV to +80 mV over a 500 msec duration. This step-ramp protocol is repeated every 10 sec. The bathing solution contained the following: 135 mM NaCl, 5 mM KCl, 2 mM CaCl2, 1 mM MgCl2, 5 mM D-Glucose, 10 mM HEPES, 10 mM sucrose (adjusted to pH 7.4 with NaOH, 300 mosmol/kg H2O). The pipette solution contained the following: 135 mM KCl, 2 mM MgCl2, 1 mM EGTA, 10 mM HEPES, 2 mM Na2ATP (adjusted to pH 7.35 with KOH, 285 mosmol/kg H2O). Test compounds are dissolved into the bathing solution. Experiments are terminated with the addition of the control compound (tert-butyl (3-((4-(benzyloxy)-2-methylphenyl)carbamoyl)-4-chlorophenyl)carbamate) so that maximal inhibition can be determined. The effects of test compound on the currents can be calculated at 0 mV using the […]

A further data set concerns the target CYP 2C9 (Homo sapiens, UniProt P11712). Briefly: CYP450 inhibition 2C9. The class given is in vitro ADME.
Data set [3] is described as follows: IV/PO pharmacokinetic study, rat (SD). The class given is in vivo. The conditions noted are these: for clearance / Vd / half-life / Cmax: Sprague-Dawley, plasma; for clearance / Vd / half-life: iv 1 mg/kg; for clearance: read-out: CLp; for Vd: read-out: Vss; for half-life: read-out: elimination t1/2 (converted); for Cmax / F (%) po: po 1 mg/kg.
Data set [4] in a line: IV/PO pharmacokinetic study, NHP (cyno). In kind it is in vivo. To be noted: for clearance / Vd / half-life / Cmax: cynomolgus monkey, plasma; for clearance / Vd / half-life: iv 1 mg/kg; for clearance: read-out: CLp; for Vd: read-out: Vss; for half-life: read-out: elimination t1/2 (converted); for Cmax / F (%) po: po 1 mg/kg.
The next data set has as its target A3 (Homo sapiens, UniProt P0DMS8). The data set is described as follows: Functional assay, adenosine A3. The class given is biochemical.
The next data set deals with Cav1.2 (Homo sapiens, UniProt Q13936). Briefly: MPC ion channel panel, Cav1.2. The class given is cell-based.
For another data set, the target named is Kir2.2 (Homo sapiens, UniProt Q14500). Briefly: MPC ion channel panel, Kir2.2. The class given is cell-based.
The nature of data set [5]: Brain exposure at the MED (rat NOR). In kind it is in vivo. The conditions noted are these: oral, 10 at 1 mg/kg, 11 at 0.3 mg/kg.

Cav1.2, sequence (Q13936 whole entry): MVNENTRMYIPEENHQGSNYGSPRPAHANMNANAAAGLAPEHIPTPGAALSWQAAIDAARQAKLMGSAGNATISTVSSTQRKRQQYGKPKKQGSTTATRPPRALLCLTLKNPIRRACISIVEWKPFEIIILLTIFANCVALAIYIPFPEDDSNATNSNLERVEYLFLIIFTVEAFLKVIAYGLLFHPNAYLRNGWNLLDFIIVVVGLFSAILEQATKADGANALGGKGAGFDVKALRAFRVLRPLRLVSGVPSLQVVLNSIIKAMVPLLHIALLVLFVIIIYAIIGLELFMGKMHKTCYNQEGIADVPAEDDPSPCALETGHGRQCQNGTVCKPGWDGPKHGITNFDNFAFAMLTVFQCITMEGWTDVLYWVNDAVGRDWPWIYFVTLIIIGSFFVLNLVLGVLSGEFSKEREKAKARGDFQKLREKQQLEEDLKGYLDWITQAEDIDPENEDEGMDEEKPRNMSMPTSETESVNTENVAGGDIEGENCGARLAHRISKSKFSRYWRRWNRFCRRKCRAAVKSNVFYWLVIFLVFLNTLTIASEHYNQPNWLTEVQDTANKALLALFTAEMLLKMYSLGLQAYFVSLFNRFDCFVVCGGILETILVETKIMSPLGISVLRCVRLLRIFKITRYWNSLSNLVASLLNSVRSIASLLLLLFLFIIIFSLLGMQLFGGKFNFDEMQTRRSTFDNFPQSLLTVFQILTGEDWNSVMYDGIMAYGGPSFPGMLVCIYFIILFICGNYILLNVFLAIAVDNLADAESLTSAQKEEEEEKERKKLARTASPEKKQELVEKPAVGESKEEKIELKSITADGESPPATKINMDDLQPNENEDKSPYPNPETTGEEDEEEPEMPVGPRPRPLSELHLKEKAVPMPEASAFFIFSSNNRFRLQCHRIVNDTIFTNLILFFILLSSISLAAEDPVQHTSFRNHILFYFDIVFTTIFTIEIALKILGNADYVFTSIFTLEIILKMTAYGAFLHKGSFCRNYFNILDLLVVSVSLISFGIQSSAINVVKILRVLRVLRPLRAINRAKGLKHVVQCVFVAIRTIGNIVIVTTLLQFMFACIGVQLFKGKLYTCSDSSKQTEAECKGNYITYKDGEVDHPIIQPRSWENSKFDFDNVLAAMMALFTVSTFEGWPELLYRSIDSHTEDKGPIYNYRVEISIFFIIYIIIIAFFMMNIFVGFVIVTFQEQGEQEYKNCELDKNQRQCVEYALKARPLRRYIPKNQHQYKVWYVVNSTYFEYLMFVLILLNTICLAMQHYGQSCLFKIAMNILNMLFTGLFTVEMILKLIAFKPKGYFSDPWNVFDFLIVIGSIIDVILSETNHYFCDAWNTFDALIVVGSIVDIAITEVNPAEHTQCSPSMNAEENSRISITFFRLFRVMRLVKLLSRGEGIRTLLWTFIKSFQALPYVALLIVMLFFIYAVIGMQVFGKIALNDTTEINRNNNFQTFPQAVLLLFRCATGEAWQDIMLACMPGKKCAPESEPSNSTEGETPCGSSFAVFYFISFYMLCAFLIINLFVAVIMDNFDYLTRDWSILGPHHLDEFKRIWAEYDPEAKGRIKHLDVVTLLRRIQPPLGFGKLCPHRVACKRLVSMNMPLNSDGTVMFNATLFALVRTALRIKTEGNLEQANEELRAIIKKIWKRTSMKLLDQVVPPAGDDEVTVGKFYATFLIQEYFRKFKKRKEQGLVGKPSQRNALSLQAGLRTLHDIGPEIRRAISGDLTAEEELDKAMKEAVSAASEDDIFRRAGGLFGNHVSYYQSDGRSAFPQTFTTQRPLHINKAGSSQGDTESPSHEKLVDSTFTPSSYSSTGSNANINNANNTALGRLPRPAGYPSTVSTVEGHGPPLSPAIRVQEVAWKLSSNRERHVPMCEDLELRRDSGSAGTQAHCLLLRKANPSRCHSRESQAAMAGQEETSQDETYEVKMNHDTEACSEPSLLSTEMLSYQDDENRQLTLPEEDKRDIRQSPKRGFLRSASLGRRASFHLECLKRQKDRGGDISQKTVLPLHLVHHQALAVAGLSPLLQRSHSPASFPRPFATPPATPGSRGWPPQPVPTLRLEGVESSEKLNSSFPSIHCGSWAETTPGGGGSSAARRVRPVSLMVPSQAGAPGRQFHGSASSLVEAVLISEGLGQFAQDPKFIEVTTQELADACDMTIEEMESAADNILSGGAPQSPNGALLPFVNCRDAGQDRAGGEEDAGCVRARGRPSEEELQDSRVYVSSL
Cav1.2, sequence (Q08289 whole entry partner): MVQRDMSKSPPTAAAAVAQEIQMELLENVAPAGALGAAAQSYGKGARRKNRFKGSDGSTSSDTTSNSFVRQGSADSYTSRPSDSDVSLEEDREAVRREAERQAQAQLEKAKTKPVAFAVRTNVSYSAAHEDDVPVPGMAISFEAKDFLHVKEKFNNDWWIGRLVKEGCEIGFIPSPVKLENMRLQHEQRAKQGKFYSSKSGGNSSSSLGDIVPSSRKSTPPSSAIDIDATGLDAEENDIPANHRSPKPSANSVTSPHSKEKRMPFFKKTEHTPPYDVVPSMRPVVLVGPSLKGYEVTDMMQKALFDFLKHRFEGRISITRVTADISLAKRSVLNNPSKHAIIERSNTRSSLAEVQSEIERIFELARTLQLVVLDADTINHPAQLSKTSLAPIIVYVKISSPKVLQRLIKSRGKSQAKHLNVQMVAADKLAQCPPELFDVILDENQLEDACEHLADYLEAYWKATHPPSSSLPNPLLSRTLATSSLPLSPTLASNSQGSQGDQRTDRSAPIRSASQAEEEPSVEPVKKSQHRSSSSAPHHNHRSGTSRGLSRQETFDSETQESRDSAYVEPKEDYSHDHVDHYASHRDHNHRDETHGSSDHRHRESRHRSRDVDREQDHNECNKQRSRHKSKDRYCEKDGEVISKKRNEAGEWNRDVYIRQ
Cav1.2, sequence (P54289 25-956 partner limits assumed): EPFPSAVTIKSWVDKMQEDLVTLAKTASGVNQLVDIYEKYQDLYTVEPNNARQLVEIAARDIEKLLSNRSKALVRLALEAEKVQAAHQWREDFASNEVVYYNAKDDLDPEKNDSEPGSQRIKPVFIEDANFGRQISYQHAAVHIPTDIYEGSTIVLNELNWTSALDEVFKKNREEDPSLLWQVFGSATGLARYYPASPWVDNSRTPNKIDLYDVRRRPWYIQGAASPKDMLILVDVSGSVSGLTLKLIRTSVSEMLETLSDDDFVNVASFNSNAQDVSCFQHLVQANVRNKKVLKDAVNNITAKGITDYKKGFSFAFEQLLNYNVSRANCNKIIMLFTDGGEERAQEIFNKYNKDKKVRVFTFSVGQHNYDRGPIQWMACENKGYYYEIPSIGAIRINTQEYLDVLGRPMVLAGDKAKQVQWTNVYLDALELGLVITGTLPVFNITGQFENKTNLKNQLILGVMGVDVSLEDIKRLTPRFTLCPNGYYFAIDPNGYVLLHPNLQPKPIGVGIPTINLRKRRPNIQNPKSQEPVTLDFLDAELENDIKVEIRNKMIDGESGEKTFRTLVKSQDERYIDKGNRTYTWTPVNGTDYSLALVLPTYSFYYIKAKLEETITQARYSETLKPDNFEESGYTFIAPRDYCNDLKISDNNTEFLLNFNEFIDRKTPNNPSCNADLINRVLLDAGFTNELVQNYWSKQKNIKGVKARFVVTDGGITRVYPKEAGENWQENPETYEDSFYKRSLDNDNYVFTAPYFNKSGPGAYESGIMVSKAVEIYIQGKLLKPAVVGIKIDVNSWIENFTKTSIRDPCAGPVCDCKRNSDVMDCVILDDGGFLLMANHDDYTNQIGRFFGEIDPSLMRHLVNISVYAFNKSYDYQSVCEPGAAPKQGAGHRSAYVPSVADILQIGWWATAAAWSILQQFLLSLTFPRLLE
Cav1.2, sequence (P54289 957-1103 partner limits assumed): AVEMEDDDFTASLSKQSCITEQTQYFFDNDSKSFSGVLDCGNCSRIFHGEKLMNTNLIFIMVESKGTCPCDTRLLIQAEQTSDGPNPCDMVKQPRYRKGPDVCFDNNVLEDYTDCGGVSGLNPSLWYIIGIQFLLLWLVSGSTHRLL
A3, sequence (P0DMS8 whole entry): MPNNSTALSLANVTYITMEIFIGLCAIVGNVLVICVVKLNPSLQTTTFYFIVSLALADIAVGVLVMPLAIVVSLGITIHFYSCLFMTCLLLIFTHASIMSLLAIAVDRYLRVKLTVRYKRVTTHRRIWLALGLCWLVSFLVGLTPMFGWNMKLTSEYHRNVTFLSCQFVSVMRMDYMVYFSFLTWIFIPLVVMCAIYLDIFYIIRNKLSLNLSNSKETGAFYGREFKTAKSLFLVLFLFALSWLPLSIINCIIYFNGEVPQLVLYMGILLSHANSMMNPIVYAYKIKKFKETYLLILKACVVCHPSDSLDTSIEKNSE
Kir2.2, sequence (Q14500 whole entry): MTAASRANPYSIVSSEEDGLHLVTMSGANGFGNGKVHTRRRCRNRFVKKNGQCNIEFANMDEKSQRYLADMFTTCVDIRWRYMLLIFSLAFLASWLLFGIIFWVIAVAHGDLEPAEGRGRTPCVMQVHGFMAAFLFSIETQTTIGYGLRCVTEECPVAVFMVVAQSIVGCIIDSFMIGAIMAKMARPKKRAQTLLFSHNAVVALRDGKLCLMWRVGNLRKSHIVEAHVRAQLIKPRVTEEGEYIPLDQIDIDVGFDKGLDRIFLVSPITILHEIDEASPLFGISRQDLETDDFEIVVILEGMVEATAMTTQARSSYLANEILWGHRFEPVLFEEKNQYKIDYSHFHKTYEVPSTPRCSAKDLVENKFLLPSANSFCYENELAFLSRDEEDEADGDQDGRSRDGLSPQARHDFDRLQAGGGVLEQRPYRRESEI

Consider `CC(=O)N1CCC(n2ncc(Cl)c2C(=O)Nc2ncc(C#Cc3ccccc3)cc2C)CC1` [Compound 10, 1-(1-Acetylpiperidin-4-yl)-4-chloro-N-(3-methyl-5-(phenylethynyl)pyridin-2-yl)-1H-pyrazole-5-carboxamide], for which the IC50 worked out at 230 nM on human TREK-2 (hTREK-2); 280 nM at rat TREK-1 [1]; 88 nM on rat TREK-1 [2]; 81 nM at human TREK-2; 6100 nM against CYP 2C9; 5370 nM on A3. Further, the clearance in data set [3] turned out to be 30 mL/min/kg; in [4] it was 13.3 mL/min/kg. The values for the Vd in data set [3] and in [4] were 2.2 L/kg and 2.1 L/kg, respectively. The half-life in data set [3] was 1 h; in data set [4] it was 3.3 h. The Cmax came to 80 ng/mL in data set [3], 152 ng/mL in data set [4] and 218 nM in data set [5]. The “F (%) po” value in data set [3] is 40%; in data set [4], 34%. Besides, the inhibition at 10 µM on Cav1.2 was no more than 50%; against Kir2.2, 51%.

Consider `CC(=O)N1CC[C@@H](n2ncc(Cl)c2C(=O)Nc2ncc(C#Cc3ccc(F)cc3)cc2C)[C@H](F)C1` [Compound 11, 1-((3R,4R)-1-Acetyl-3-fluoropiperidin-4-yl)-4-chloro-N-(5-((4-fluorophenyl)ethynyl)-3-methylpyridin-2-yl)-1H-pyrazole-5-carboxamide], for which the IC50 was 290 nM on human TREK-2 (hTREK-2); 290 nM at rat TREK-1 [1]; 200 nM on rat TREK-1 [2]; 110 nM on human TREK-2; 4900 nM at CYP 2C9; 19800 nM against A3. Moreover, the results for the clearance in data set [3] and in data set [4] were 6.1 mL/min/kg and 6.5 mL/min/kg, respectively. The results for the Vd in [3] and in [4] were 2.7 L/kg and 4.4 L/kg, respectively. In addition, the results for the half-life in [3] and in data set [4] were 5.5 h and 9.3 h, respectively. The Cmax in [3] turned out to be 162 ng/mL; in data set [4] it was 260 ng/mL; in data set [5] it was 58 nM. The “F (%) po” value in data set [3] came out at 57%; in data set [4] it was 89%. The inhibition at 10 µM at Cav1.2 and against Kir2.2 was no more than 50% throughout.
